Converted amounts (≈) assume the structure as drawn. Where two headings read alike, the source gives them in different places.
Legend:
[1] = system: Staphylococcus aureus ATCC 29213; test: in vitro antibacterial activity, dilution MIC (CLSI M07-A10); assay type: cell-based; details: ATCC29213
[2] = system: Staphylococcus aureus ATCC BAA-1556 (MERSA resistant); test: as above; assay type: cell-based; details: ATCCBAA1556
[3] = system: Staphylococcus epidermidis; test: as above; assay type: cell-based
[4] = system: Bacillus subtilis MTCC 441; test: as above; assay type: cell-based; details: MTCC441
[5] = system: Enterococcus faecium ATCC 35667; test: as above; assay type: cell-based; details: ATCC35667
[6] = system: Enterococcus faecium ATCC 51559 (VRE resistant); test: as above; assay type: cell-based
[7] = system: Klebsiella pneumonia MTCC 618; test: as above; assay type: cell-based; details: Klebsiella pneumoniae, MTCC618
[8] = system: Escherichia coli MTCC 443; test: as above; assay type: cell-based; details: MTCC443
[9] = system: Pseudomonas aeruginosa MTCC 741; test: as above; assay type: cell-based; details: MTCC741
[10] = system: H37Rv type of M. tuberculosis strains; test: antitubercular alamar blue microplate MIC assay; assay type: cell-based; details: mycobacterium tuberculosis H37Rv strain, read-out: anti-mycobacterial activity (MIC)
DNA gyrase from E. coli = target: T1, DNA gyrase from E. coli (Escherichia coli, UniProt P0AES4+P0AES6); test: Inhibitory activities on E. coli DNA Gyrase (Inspiralis assay); assay type: biochemical
T1 construct: purchased Inspiralis
Description: First, the plates were rehydrated with buffer (20 mM Tris-HCl with pH 7.6, 0.01% w/v BSA, 0.05% v/v Tween 20, 137 mM NaCl) and the biotinylated oligonucleotide was then immobilized. After washing off the unbound oligonucleotide, the enzyme test was performed. […] Reaction solutions were incubated at 37° C. for 30 min. After that, the TF buffer (50 mM NaOAc with pH 5.0, 50 mM NaCl and 50 mM MgCl2) was added to terminate the enzymatic reaction. After additional incubation for 30 min at rt, during which biotinoligonucleotide-plasmid triplex was formed, the unbound plasmid was washed off using TF buffer and SybrGOLD in T10 buffer (10 mM Tris HCl with pH 8.0 and 1 mM EDTA) was added. The fluorescence was measured with a microplate reader (BioTek Synergy H4, excitation: 485 nm, emission: 535 nm). Initial screening was done at 100 or 10 μM concentration of inhibitors. […] GraphPad Prism software was used to calculate the IC50 values. The result is given as the average value of three independent measurements.

T1 sequence (P0AES4 whole entry, one chain of several): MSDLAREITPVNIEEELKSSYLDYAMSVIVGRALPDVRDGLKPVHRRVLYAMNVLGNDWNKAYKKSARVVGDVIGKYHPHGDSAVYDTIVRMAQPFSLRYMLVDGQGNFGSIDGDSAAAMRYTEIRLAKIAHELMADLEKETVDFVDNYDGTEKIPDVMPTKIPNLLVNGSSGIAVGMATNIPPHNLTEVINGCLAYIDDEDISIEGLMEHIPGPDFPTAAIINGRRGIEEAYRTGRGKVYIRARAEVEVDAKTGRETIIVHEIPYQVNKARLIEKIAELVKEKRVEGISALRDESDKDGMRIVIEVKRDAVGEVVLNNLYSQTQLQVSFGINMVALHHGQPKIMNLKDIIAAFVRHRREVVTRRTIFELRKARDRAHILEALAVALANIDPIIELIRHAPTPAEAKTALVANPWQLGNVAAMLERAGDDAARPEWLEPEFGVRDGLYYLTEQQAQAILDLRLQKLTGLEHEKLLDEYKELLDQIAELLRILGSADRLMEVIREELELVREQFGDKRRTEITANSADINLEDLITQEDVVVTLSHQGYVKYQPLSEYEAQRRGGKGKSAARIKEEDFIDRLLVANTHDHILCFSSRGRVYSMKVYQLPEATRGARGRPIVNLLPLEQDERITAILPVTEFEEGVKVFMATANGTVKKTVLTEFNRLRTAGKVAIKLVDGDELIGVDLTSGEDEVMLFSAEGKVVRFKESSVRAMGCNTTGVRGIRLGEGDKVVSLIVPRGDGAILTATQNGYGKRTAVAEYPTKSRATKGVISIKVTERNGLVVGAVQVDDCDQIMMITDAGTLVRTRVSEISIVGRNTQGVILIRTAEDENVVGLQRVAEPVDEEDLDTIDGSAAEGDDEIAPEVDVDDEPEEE

| SMILES | MIC [1] [µg/mL] | MIC [2] [µg/mL] | MIC [3] [µg/mL] | MIC [4] [µg/mL] | MIC [5] [µg/mL] | MIC [6] [µg/mL] | MIC ([7]; Klebsiella pneumonia MTCC 618, read-out: MIC) [µg/mL] | MIC [8] [µg/mL] | MIC [9] [µg/mL] | MIC [10] [µg/mL] | IC50 (DNA gyrase from E. coli) [nM] | MIC [7] [µg/mL] |
| --- | --- | --- | --- | --- | --- | --- | --- | --- | --- | --- | --- | --- |
| CCCCCN(C)Cc1ccc(C(=O)O)cc1-c1cnc2[nH]c3c(NC)cc(F)cc3c(=O)c2c1 [Compound 8, 3-(7-fluoro-9-(methylamino)-5-oxo-5,10-dihydrobenzo[b][1,8]naphthyridin-3-yl)-4-((methyl(pentyl)amino)methyl)benzoic acid] | 0.75 (≈ 1.57 µM) | 0.75 (≈ 1.57 µM) | 1 (≈ 2.1 µM) | 0.5 (≈ 1.05 µM) | 0.1 (≈ 0.21 µM) | 0.1 (≈ 0.21 µM) | 0.75 (≈ 1.57 µM) | 2 (≈ 4.2 µM) | 0.5 (≈ 1.05 µM) | 4 (≈ 8.39 µM) | 11 |  |
| CN[C@H](CC(C)C)C(=O)N[C@H]1C(=O)N[C@@H](CC(N)=O)C(=O)N[C@H]2C(=O)N[C@H]3C(=O)N[C@H](C(=O)N[C@H](C(=O)O)c4cc(O)cc(O)c4-c4cc3ccc4O)[C@H](O)c3ccc(c(Cl)c3)Oc3cc2cc(c3O[C@@H]2O[C@H](CO)[C@@H](O)[C@H](O)[C@H]2O[C@H]2C[C@](C)(N)[C@H](O)[C@H](C)O2)Oc2ccc(cc2Cl)[C@H]1O [Vancomycin, reference compound] |  |  |  |  |  |  |  |  |  |  |  | > 128 |
